Broadly, the viability is a read-out of living cells in per cent, often relative to untreated cells.

Each structure is given as a SMILES string. Activity calls are given as the source filed them. How the calls were made is not given here.

The test can be described thus: mammalian cell cytotoxicity, cytotoxicity control, set 3 (AID 504713). The note with it: mammalian cell cytotoxicity, viability, CC50; at 100 µM (top of the series).
`CCCOc1ccc2c(c1)c(C(C)=O)c(C)n2-c1ccccc1`: the viability is 97.2% (inactive). To `COc1cccc(-c2ccc(-c3noc(-c4ccccc4F)n3)c(OC)n2)c1` belongs 91.7% (inactive).

Regarding `Cc1cc2cc(F)ccc2[nH]1`, the viability is 102% (inactive). In the case of `Cc1cc(C)c(OCC(=O)Nc2nc3ccccc3s2)c(Cl)c1` it was 98.1% (inactive); in that of `COc1ccc(C(=O)Nc2ccc3nc(N4CCCCC4)cc(C)c3c2)c(OC)c1`, 96.5% (inactive).

For `CC(C)Cn1c2c(c(O)c(C(=O)Nc3nccs3)c1=O)CCCC2`, the viability is 100% (inactive). As for `CC(=O)c1c(C)n(-c2ccccc2)c2ccccc12`, the viability is 98.2% (inactive). Consider `O=C(COc1ccc2c3c(c(=O)oc2c1)CCC3)Nc1nc2ccccc2[nH]1`, for which the viability was 97% (inactive). Consider `CCOc1ccc2c(ccn2-c2ccccc2)c1`, for which the viability is 99.9% (inactive).

As for `Cc1ccc(OCC(=O)Nc2cccc3ncccc23)c(C)c1`, the viability was 92.8% (inactive). Consider `Cc1ccccc1OCC(=O)Nc1noc(-c2ccccc2)n1`, for which the viability is 100% (inactive). On to `CCC(CC)c1nnc(NC(=O)c2ccc(N3CCCCC3)c([N+](=O)[O-])c2)s1`, for which the viability was 96.7% (inactive). On to `O=C(Cc1csc(-c2ccccc2F)n1)Nc1nc2ccccc2[nH]1`, for which the viability was 105% (inactive). In the case of `Cc1ccc(C(C)C)c(OCC(=O)Nc2nc3ccccc3s2)c1` it was 92% (inactive); in that of `COc1ccc2nc(NC(=O)COc3ccccc3C(C)C)sc2c1`, 89.6% (inactive); in that of `CCOc1ccc2[nH]cc(C(=O)OC)c2c1`, 86.9% (inactive). In the case of `Cc1ccccc1OCC(=O)Nc1ncccn1` it was 106% (inactive); in that of `COc1ccc2c(c1)c(C(C)=O)c(C)n2-c1ccccc1`, 96.1% (inactive). Take `CCOC(=O)COc1nc(-c2ccc(Cl)cc2)cc(-c2ccco2)c1C#N`: the viability was 103% (inactive). Regarding `Cc1ccc(OCC(=O)Nc2ccc(Cl)cc2)c(C)c1`, the viability was 97.9% (inactive). `CCOc1ccc2[nH]ccc2c1`: the viability is 97.9% (inactive). `CCOc1ccc2nc(NC(=O)COc3ccc(F)cc3)sc2c1`: the viability is 103% (inactive). On to `O=C(Cc1ccccc1Cl)Nc1nc2ccccc2[nH]1`, for which the viability was 100% (inactive). For the compound `CCOC(=O)c1c(C)[nH]c2ccccc12`, the viability was 85.7% (inactive).

On to `COc1ccc2nc(NC(=O)c3oc4ccccc4c3C)sc2c1`, for which the viability was 94.4% (inactive).

Consider `Cc1ccc(OCC(=O)Nc2nc3ccc(F)cc3s2)cc1`, for which the viability was 103% (inactive). Turning to `Cc1cc2cc(F)ccc2n1-c1ccccc1`, the viability was 93.3% (inactive). Regarding `Cc1ccc(OCC(=O)Nc2nnn(C)n2)c(C)c1`, the viability is 103% (inactive). For the compound `CCOc1ccc2nc(NC(=O)COc3ccc(OC)cc3)sc2c1`, the viability is 102% (inactive).

Regarding `O=C(OC(C(=O)Nc1ccc(Cl)cc1C(F)(F)F)c1ccccc1)C1=COCCO1` (centres undefined), the viability was 84.8% (inactive).

`CCOc1ccc2[nH]c(C)cc2c1`: the viability was 93% (inactive). For `CCc1ccc2nc(/N=C(\N)NC(=O)c3ccccc3)nc(C)c2c1`, the viability is 94.8% (inactive). On to `O=C(COc1ccccc1)Nc1nc2ccccc2s1`, for which the viability is 104% (inactive).

On to `CCOC(=O)c1cnc2cc(-c3ccc(C(C)(C)C)cc3)nn2c1N`, for which the viability was 94.4% (inactive). Take `CC(=O)c1c(C)n(-c2cccc(Cl)c2)c2ccc(O)cc12`: the viability was 89% (inactive). To `Oc1ccc2[nH]ccc2c1` belongs 106% (inactive).

On to `CCCN1CC(O)=C(c2nc3ccccc3s2)C1=N`, for which the viability is 88.5% (inactive).

Regarding `Cc1ccccc1OCC(=O)Nc1ncn[nH]1`, the viability is 95.4% (inactive). `COC(=O)c1c(C)[nH]c2ccccc12`: the viability was 82.6% (inactive).

Source of the values: PubChem BioAssay AID504713 (Southern Research Specialized Biocontainment Screening …, 2011).
